For one test, the system named is dyslipidemic E2/E2 mice. Kind of test: Plasma lipid assays and lipoprotein distribution in the E2/E2 mouse. It is filed as in vivo. As to the method:
The antilipemic and HDL-cholesterol synthesis stimulating properties of the compounds according to the invention were evaluated in vivo by assay of the plasma lipids, analysis of the distribution of cholesterol and of triglycerides in the various plasma lipoprotein fractions and measurement of the expression of the target genes of the PPARs in the liver and skeletal muscle after treatment of dyslipidemic E2/E2 mice with compound 2.
The murine model used is the ApoE2/E2 type mouse, a transgenic mouse for the E2 isoform of human apolipoprotein E (Sullivan P M et al., 1998). In humans, this apolipoprotein, a constituent of the low and very low density lipoproteins (LDL-VLDL), occurs in three isoforms E2, E3 and E4. The E2 form has a mutation on an amino acid in position 158, which greatly weakens the affinity of this protein for the LDL receptor. The clearance of the VLDLs is accordingly almost zero. There is then accumulation of low-density lipoproteins and mixed hyperlipidemia called type III (high cholesterol and triglycerides).
Apo E2/E2 transgenic mice were kept under a cycle of light and darkness of 12/12 hours at a constant temperature of 20±3° C. After acclimation for one week, the mice were weighed and put into groups of 6 animals selected so that the distribution of their body weights and of their plasma lipid levels determined for the first time before the experiment are uniform. The test compounds were suspended in carboxymethylcellulose (Sigma C4888) and administered by intragastric force feeding, at a rate of once per day for 13 days at the chosen dose. The animals had free access to water and to food (standard diet). At the end of the experiment, the animals were anesthetized after fasting for 4 hours, a blood sample was taken using anticoagulant (EDTA), then the mice were weighed and euthanased. The plasma was separated by centrifugation at 3000 rev/min for 20 minutes, and the samples were stored at +4° C.
The various lipid fractions (VLDL, LDL, HDL) of the plasma were separated by gel filtration chromatography. The concentrations of cholesterol and of triglycerides were then measured in each fraction by enzyme assays (bioMérieux-Lyon-France) following the supplier's recommendations.
The plasma concentrations of total cholesterol were measured by enzyme assays (bioMérieux-Lyon-France) following the supplier's recommendations.
The low-density lipoproteins (VLDL and LDL) were precipitated with phosphotungstate. The precipitate was removed by centrifugation. The HDL-cholesterol present in the supernatant was quantified by enzyme assays (bioMérieux-Lyon-France) following the supplier's recommendations.

The next test has as its target T1, hPPARdelta (Homo sapiens, UniProt Q03181).
T1 construct: expressed in transfected cells; host or cells: COS-7 (monkey kidney fibroblasts)
T1 sequence (Q03181 211-439 limits assumed): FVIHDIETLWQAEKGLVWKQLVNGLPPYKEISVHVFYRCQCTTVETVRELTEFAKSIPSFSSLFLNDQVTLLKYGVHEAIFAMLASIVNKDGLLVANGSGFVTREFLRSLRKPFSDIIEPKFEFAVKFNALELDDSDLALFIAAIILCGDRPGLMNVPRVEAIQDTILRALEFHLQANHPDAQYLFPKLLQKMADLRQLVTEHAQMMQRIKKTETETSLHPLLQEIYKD
Kind of test: PPAR activation: Gal4-hPPARδ chimera luciferase transactivation in COS-7 cells, Method 2. It is filed as cell-based. To be noted: COS-7, 24 h. The gist of the method: (§1)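 COS-7 cells were transfected with Gal4-PPAR LBD chimera plus Gal4(RE)_TkpGL3 luciferase reporter (1/10) and seeded serum-free for 4 h. Compounds at 10^−5 to 100 μm were applied for 24 h at 37° C in 1% lipid-free synthetic serum. Luciferase was read after lysis, and EC50 derived.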

The next test addresses T2, hPPARalpha (Homo sapiens, UniProt Q07869).
T2 construct: expressed in transfected cells; host or cells: COS-7 (monkey kidney fibroblasts)
T2 sequence (Q07869 239-466 limits assumed): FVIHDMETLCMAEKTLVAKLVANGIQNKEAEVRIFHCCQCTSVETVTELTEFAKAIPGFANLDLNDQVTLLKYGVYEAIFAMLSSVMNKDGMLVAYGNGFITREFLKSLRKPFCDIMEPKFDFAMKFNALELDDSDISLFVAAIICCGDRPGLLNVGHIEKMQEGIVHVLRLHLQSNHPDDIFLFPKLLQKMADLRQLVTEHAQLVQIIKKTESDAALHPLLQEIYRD
Kind of test: PPAR activation: Gal4-hPPARα chimera luciferase transactivation in COS-7 cells, Method 2. It is filed as cell-based. To be noted: COS-7, 24 h. The essentials: as §1

The mark [1] stands for this setting: 50 mpk oral, 7 and 13 days, vs control animals.

The values that follow come from patent US8088819B2, “Derivatives of substituted 3-phenyl-1-(phenylthienyl)propan-1-ones and of 3-phenyl-1-(phenylfuranyl) propan-1-ones, preparation and use” (priority 2006, dated 2012).

Take `CC(C)(Oc1ccc(CCC(=O)c2ccc(-c3ccc(C(F)(F)F)cc3)s2)c(Cl)c1Cl)C(=O)O` [Compound 2, 2-(2,3-dichloro-4-(3-oxo-3-(5-(4-(trifluoromethyl)phenyl)thien-2-yl)propyl)phenoxy)-2-methylpropanoic acid]: in the test on dyslipidemic E2/E2 mice (setting [1]), the “plasma HDL-cholesterol level” value was “increased significantly” and the “plasma total cholesterol level” value is “lowered significantly”. For the same compound, in the test on dyslipidemic E2/E2 mice (50 mpk, 13 days), the “level of triglycerides present in the VLDL” value is “lowered”; the “plasma HDL-cholesterol level (distribution of cholesterol in plasma lipoprotein fractions)” value was “increased”; the “plasma levels of LDL and VLDL (distribution of cholesterol in plasma lipoprotein fractions)” value is recorded as “significant decrease”.

Turning to `CC(C)(Oc1ccc(CCC(OCc2ccccc2)c2ccc(-c3ccc(C(F)(F)F)cc3)s2)c(Cl)c1Cl)C(=O)O` (stereo not drawn) [Compound 7, 2-(4-(3-(benzyloxy)-3-(5-(4-(trifluoromethyl)phenyl)thien-2-yl)propyl)-2,3-dichlorophenoxy)-2-methylpropanoic acid], the results for the EC50 at hPPARdelta (1% Ultroser) and on hPPARalpha (1% Ultroser) were 0.03 µM and 5.46 µM, respectively. Further, the Emax came out at 92% at hPPARdelta (maximum percentage response relative to the reference GW501516, read-out: hPPARdelta % max) and 20% at hPPARalpha (maximum percentage response relative to the reference phenofibric acid, read-out: hPPARalpha % max).
